Source: patent US20150191469A1, “COMPOUNDS AND METHODS FOR TREATING HIV” (priority 2012, published 2015)

Each molecule was assayed on HIV (assay: MT4 assay: antiviral HIV activity (cell protection, cell titer glo readout at 96 hours)). Conditions: Human immunodeficiency virus 1, MT4, 96 h, MT4 cells, cell titer glo readout at 96 hours, 10 point dose response; read-out: HIV MT4 Assay IC50.
Assay type: cell-based
Experimental: Antiviral HIV activity and cytotoxicity values for compounds of the invention from Table 1 were measured in parallel in the HTLV-1 transformed cell line MT-4 based on the method previously described (Hazen et al., 2007, In vitro antiviral activity of the novel, tyrosyl-based human immunodeficiency virus (HIV) type 1 protease inhibitor brecanavir (GW640385) in combination with other antiretrovirals and against a panel of protease inhibitor-resistant HIV (Hazen et al., “In vitro antiviral activity of the novel, tyrosyl-based human immunodeficiency virus (HIV) type 1 protease inhibitor brecanavir (GW640385) in combination with other antiretrovirals and against a panel of protease inhibitor-resistant HIV”, Antimicrob. Agents Chemother. 2007, 51: 3147-3154; and Pauwels et al., “Sensitive and rapid assay on MT-4 cells for the detection of antiviral compounds against the AIDS virus”, J. of Virological Methods 1987, 16: 171-185).
Luciferase activity was measured 96 hours later by adding a cell titer glo (Promega, Madison, Wis.). Percent inhibition of cell protection data was plotted relative to no compound control. Under the same condition, cytotoxicity of the compounds was determined using cell titer Glo™ (Promega, Madison, Wis.). IC50s were determined from a 10 point dose response curve using 3-4-fold serial dilution for each compound, which spans a concentration range >1000 fold.
These values are plotted against the molar compound concentrations using the standard four parameter logistic equation:
y=((Vmax*x̂n)/(K̂n+x̂n))+Y2
Y2=minimum y n=slope factor
Vmax=maximum y x=compound concentration [M]

Which IC50 does the source give for `Cc1nc2c(cc(-c3ccnc(NC4COC4)c3)n2C)c(-c2cc(F)c3c(c2C)CCCO3)c1[C@H](OC(C)(C)C)C(=O)O` (atropisomer, axis not shown) [Example 81] here?
Its IC50 is 2.28 µM.

How did the IC50 turn out when `Cc1nc2c(cc(-c3ccnc(N4CCN(C(=O)c5ccccc5)CC4)c3)n2C)c(-c2cc(F)c3c(c2C)CCCO3)c1[C@H](OC(C)(C)C)C(=O)O` (atropisomer, axis not shown) [Example 82] was run?
Its IC50 is 0.0477 µM.

Which IC50 does the source give for `Cc1nc2c(cc(-c3ccnc(N4CCN(c5ccccc5)CC4)c3)n2C)c(-c2cc(F)c3c(c2C)CCCO3)c1[C@H](OC(C)(C)C)C(=O)O` (atropisomer, axis not shown) [Example 83] here?
Its IC50 is 0.0525 µM.

How did the IC50 turn out when `Cc1nc2c(cc(-c3ccnc(N4CCN(c5nccs5)CC4)c3)n2C)c(-c2cc(F)c3c(c2C)CCCO3)c1[C@H](OC(C)(C)C)C(=O)O` (atropisomer, axis not shown) [Example 84] was run?
Its IC50 is 0.0147 µM.

Which IC50 does the source give for `Cc1nc2c(cc(-c3ccnc(N4CCCN(C5COC5)CC4)c3)n2C)c(-c2cc(F)c3c(c2C)CCCO3)c1[C@H](OC(C)(C)C)C(=O)O` (atropisomer, axis not shown) [Example 85] here?
The IC50 was 0.0127 µM.

For `COC1CCN(c2cc(-c3cc4c(-c5cc(F)c6c(c5C)CCCO6)c([C@H](OC(C)(C)C)C(=O)O)c(C)nc4n3C)ccn2)CC1` (atropisomer, axis not shown) [Example 86], which IC50 is on record?
Its IC50 is 0.0132 µM.

`Cc1nc2c(cc(-c3ccnc(N4CCC(N(C)C)CC4)c3)n2C)c(-c2cc(F)c3c(c2C)CCCO3)c1[C@H](OC(C)(C)C)C(=O)O` (atropisomer, axis not shown) [Example 87] was tested. Which IC50 did it give?
The IC50 was 0.0428 µM.

How did the IC50 turn out when `Cc1nc2c(cc(-c3ccnc(N4CCN(c5ccncc5)CC4)c3)n2C)c(-c2cc(F)c3c(c2C)CCCO3)c1[C@H](OC(C)(C)C)C(=O)O` (atropisomer, axis not shown) [Example 88] was run?
The IC50 was 0.0134 µM.

Which IC50 does the source give for `CC(=O)N1CCN(c2cc(-c3cc4c(-c5cc(F)c6c(c5C)CCCO6)c([C@H](OC(C)(C)C)C(=O)O)c(C)nc4n3C)ccn2)CC1` (atropisomer, axis not shown) [Example 89] here?
The IC50 was 0.025 µM.

`Cc1nc2c(cc(-c3ccnc(N4CCN(c5ccccn5)CC4)c3)n2C)c(-c2cc(F)c3c(c2C)CCCO3)c1[C@H](OC(C)(C)C)C(=O)O` (atropisomer, axis not shown) [Example 90] was tested. Which IC50 did it give?
Its IC50 is 0.0133 µM.

With `Cc1nc2c(cc(-c3ccnc(N4CCN(C5CCCC5)CC4)c3)n2C)c(-c2cc(F)c3c(c2C)CCCO3)c1[C@H](OC(C)(C)C)C(=O)O` (atropisomer, axis not shown) [Example 91] as the molecule, how does the IC50 read?
The IC50 was 0.0122 µM.

With `Cc1nc2c(cc(-c3ccnc(N4CCN(S(C)(=O)=O)CC4)c3)n2C)c(-c2cc(F)c3c(c2C)CCCO3)c1[C@H](OC(C)(C)C)C(=O)O` (atropisomer, axis not shown) [Example 92] as the molecule, how does the IC50 read?
The IC50 was 0.0196 µM.

Which IC50 does the source give for `Cc1nc2c(cc(-c3ccnc(N4CCN(c5ncccn5)CC4)c3)n2C)c(-c2cc(F)c3c(c2C)CCCO3)c1[C@H](OC(C)(C)C)C(=O)O` (atropisomer, axis not shown) [Example 93] here?
The IC50 was 0.0239 µM.

Which IC50 does the source give for `Cc1nc2c(cc(-c3ccnc(N4CCCN(C)CC4)c3)n2C)c(-c2cc(F)c3c(c2C)CCCO3)c1[C@H](OC(C)(C)C)C(=O)O` (atropisomer, axis not shown) [Example 94] here?
Its IC50 is 0.0508 µM.

Which IC50 does the source give for `CC(=O)N1CCCN(c2cc(-c3cc4c(-c5cc(F)c6c(c5C)CCCO6)c([C@H](OC(C)(C)C)C(=O)O)c(C)nc4n3C)ccn2)CC1` (atropisomer, axis not shown) [Example 95] here?
The IC50 was 0.0524 µM.

`Cc1nc2c(cc(-c3ccnc(N4CCCNCC4)c3)n2C)c(-c2cc(F)c3c(c2C)CCCO3)c1[C@H](OC(C)(C)C)C(=O)O` (atropisomer, axis not shown) [Example 96] was tested. Which IC50 did it give?
The IC50 was 0.35 µM.

How did the IC50 turn out when `Cc1nc2c(cc(-c3ccnc(N4CCCN(S(C)(=O)=O)CC4)c3)n2C)c(-c2cc(F)c3c(c2C)CCCO3)c1[C@H](OC(C)(C)C)C(=O)O` (atropisomer, axis not shown) [Example 97] was run?
Its IC50 is 0.0165 µM.

`Cc1nc2c(cc(-c3ccnc(N4CCCN(C(C)C)CC4)c3)n2C)c(-c2cc(F)c3c(c2C)CCCO3)c1[C@H](OC(C)(C)C)C(=O)O` (atropisomer, axis not shown) [Example 98] was tested. Which IC50 did it give?
The IC50 was 0.0162 µM.

`Cc1nc2c(cc(-c3ccnc(N4C[C@H]5CC[C@@H]4C5)c3)n2C)c(-c2cc(F)c3c(c2C)CCCO3)c1[C@H](OC(C)(C)C)C(=O)O` (atropisomer, axis not shown) [Example 99] was tested. Which IC50 did it give?
Its IC50 is 0.0148 µM.

For `CC1=CCN(c2cc(-c3cc4c(-c5cc(F)c6c(c5C)CCCO6)c([C@H](OC(C)(C)C)C(=O)O)c(C)nc4n3C)ccn2)CC1` (atropisomer, axis not shown) [Example 100], which IC50 is on record?
Its IC50 is 0.0142 µM.

For `Cc1nc2c(cc(-c3ccnc(N4CCCN(C(=O)C5CCCC5)CC4)c3)n2C)c(-c2cc(F)c3c(c2C)CCCO3)c1[C@H](OC(C)(C)C)C(=O)O` (atropisomer, axis not shown) [Example 101], which IC50 is on record?
Its IC50 is 0.0674 µM.

With `Cc1nc2c(cc(-c3ccnc(N4CCCN(C(=O)C(C)C)CC4)c3)n2C)c(-c2cc(F)c3c(c2C)CCCO3)c1[C@H](OC(C)(C)C)C(=O)O` (atropisomer, axis not shown) [Example 102] as the molecule, how does the IC50 read?
Its IC50 is 0.045 µM.

`COCCN1CCCN(c2cc(-c3cc4c(-c5cc(F)c6c(c5C)CCCO6)c([C@H](OC(C)(C)C)C(=O)O)c(C)nc4n3C)ccn2)CC1` (atropisomer, axis not shown) [Example 103] was tested. Which IC50 did it give?
Its IC50 is 0.045 µM.

For `Cc1nc2c(cc(-c3ccnc(N4CCCN(C(=O)C5CC5)CC4)c3)n2C)c(-c2cc(F)c3c(c2C)CCCO3)c1[C@H](OC(C)(C)C)C(=O)O` (atropisomer, axis not shown) [Example 104], which IC50 is on record?
The IC50 was 0.0375 µM.

With `Cc1nc2c(cc(-c3ccnc(N4CCc5cc(-n6c(C)ccc6C)ccc5C4)c3)n2C)c(-c2cc(F)c3c(c2C)CCCO3)c1[C@H](OC(C)(C)C)C(=O)O` (atropisomer, axis not shown) [Example 106] as the molecule, how does the IC50 read?
The IC50 was 0.045 µM.

Which IC50 does the source give for `Cc1nc2c(cc(-c3ccnc(N4CCCN(C(=O)C5CCOCC5)CC4)c3)n2C)c(-c2cc(F)c3c(c2C)CCCO3)c1[C@H](OC(C)(C)C)C(=O)O` (atropisomer, axis not shown) [Example 108] here?
Its IC50 is 0.131 µM.

How did the IC50 turn out when `COc1ccccc1[C@H]1[C@@H]2CN(c3cc(-c4cc5c(-c6cc(F)c7c(c6C)CCCO7)c([C@H](OC(C)(C)C)C(=O)O)c(C)nc5n4C)ccn3)C[C@@H]21` (atropisomer, axis not shown) [Example 109] was run?
Its IC50 is 0.121 µM.

For `Cc1nc2c(cc(-c3ccnc(N4C[C@@H]5CC[C@@H](C5)C4)c3)n2C)c(-c2cc(F)c3c(c2C)CCCO3)c1[C@H](OC(C)(C)C)C(=O)O` (atropisomer, axis not shown) [Example 111], which IC50 is on record?
Its IC50 is 0.0275 µM.

How did the IC50 turn out when `Cc1nc2c(cc(-c3ccnc(N4CCCN(C5CCOCC5)CC4)c3)n2C)c(-c2cc(F)c3c(c2C)CCCO3)c1[C@H](OC(C)(C)C)C(=O)O` (atropisomer, axis not shown) [Example 113] was run?
The IC50 was 0.02 µM.

For `Cc1nc2c(cc(-c3ccnc(N4CCCN(S(=O)(=O)C5CC5)CC4)c3)n2C)c(-c2cc(F)c3c(c2C)CCCO3)c1[C@H](OC(C)(C)C)C(=O)O` (atropisomer, axis not shown) [Example 114], which IC50 is on record?
The IC50 was 0.025 µM.

Which IC50 does the source give for `Cc1nc2c(cc(-c3ccnc(N4CCN(C(=O)N(C)C)CC4)c3)n2C)c(-c2cc(F)c3c(c2C)CCCO3)c1[C@H](OC(C)(C)C)C(=O)O` (atropisomer, axis not shown) [Example 115] here?
Its IC50 is 0.0156 µM.

With `Cc1nc2c(cc(-c3ccnc(N4CCCN(C5CCC5)CC4)c3)n2C)c(-c2cc(F)c3c(c2C)CCCO3)c1[C@H](OC(C)(C)C)C(=O)O` (atropisomer, axis not shown) [Example 117] as the molecule, how does the IC50 read?
Its IC50 is 0.0391 µM.

Which IC50 does the source give for `Cc1nc2c(cc(-c3ccnc(N4CCN(C5CC5)CC4)c3)n2C)c(-c2cc(F)c3c(c2C)CCCO3)c1[C@H](OC(C)(C)C)C(=O)O` (atropisomer, axis not shown) [Example 118] here?
The IC50 was 0.015 µM.

With `COCCS(=O)(=O)N1CCCN(c2cc(-c3cc4c(-c5cc(F)c6c(c5C)CCCO6)c([C@H](OC(C)(C)C)C(=O)O)c(C)nc4n3C)ccn2)CC1` (atropisomer, axis not shown) [Example 119] as the molecule, how does the IC50 read?
The IC50 was 0.02 µM.

For `Cc1nc2c(cc(-c3ccnc(N4CC[C@@H](N(C)C)C4)c3)n2C)c(-c2cc(F)c3c(c2C)CCCO3)c1[C@H](OC(C)(C)C)C(=O)O` (atropisomer, axis not shown) [Example 120], which IC50 is on record?
Its IC50 is 0.045 µM.

For `Cc1nc2c(cc(-c3ccnc(N4C[C@@H]5CC[C@H]4CN(C4COC4)C5)c3)n2C)c(-c2cc(F)c3c(c2C)CCCO3)c1[C@H](OC(C)(C)C)C(=O)O` (atropisomer, axis not shown) [Example 122], which IC50 is on record?
Its IC50 is 0.0116 µM.

With `COCCC(=O)N1CCCN(c2cc(-c3cc4c(-c5cc(F)c6c(c5C)CCCO6)c([C@H](OC(C)(C)C)C(=O)O)c(C)nc4n3C)ccn2)CC1` (atropisomer, axis not shown) [Example 125] as the molecule, how does the IC50 read?
The IC50 was 0.0415 µM.

Which IC50 does the source give for `Cc1nc2c(cc(-c3ccnc(N4CCN(C5CCOCC5)CC4)c3)n2C)c(-c2cc(F)c3c(c2C)CCCO3)c1[C@H](OC(C)(C)C)C(=O)O` (atropisomer, axis not shown) [Example 127] here?
The IC50 was 0.0036 µM.

With `Cc1nc2c(cc(-c3ccnc(N4CCCN(C5(C)COC5)CC4)c3)n2C)c(-c2cc(F)c3c(c2C)CCCO3)c1[C@H](OC(C)(C)C)C(=O)O` (atropisomer, axis not shown) [Example 128] as the molecule, how does the IC50 read?
Its IC50 is 0.0103 µM.
